According to patent publication US20170107173A1, “THERAPEUTIC COMPOUNDS AND METHODS” (UNIVERSITY OF IOWA RESEARCH FOUNDATION, priority 2015, published 2017):

Columns and labels:
[1] = biological target: T1, human δ opioid receptor (DOP) over-expressed in CHO cells (Homo sapiens, UniProt P41143); assay: [35S]GTPγS binding assay, functional antagonism (Ke) vs DPDPE; format: biochemical; settings: for Kb: [35S]GTPγS, agonist DPDPE, read-out: apparent affinity (Ke) of antagonists, DOP
T1 construct: host or cells: CHO cells; membrane homogenates
Description: (§1) All compounds were initially screened for intrinsic and antagonist activity at 10 μM in the [^35S]GTPγS binding assay at the human κ, and the μ, and δ opioid receptors over-expressed in CHO cells. These cell lines were kindly provided by Temple University (κ) and SRI International (μ and δ). Compounds identified as antagonist were characterized for functional antagonism (Ke) and selectivity by measuring the ability of the test compounds to inhibit stimulated [^35S]GTPγS binding produced by one of the selective agonists DAMGO (μ), DPDPE (δ), or U69,593 (κ). Agonist concentration-response curves were run in the presence or absence of a single concentration of test compound.
(§2) The test compounds were assayed in duplicate in 1.4-mL polypropylene tubes in a 96-well format. CHO membrane homogenates (20-40 µg protein) were incubated with a positive control or the test compound, 0.1 nM [^35S]GTP-γ-S and 1 μM GDP in 50 mM HEPES buffer (pH 7.4) at room temperature for 1 h, after which bound radioligand was separated from free radioligand via rapid vacuum filtration over GF-B filters with a Brandel Scientific (Gaithersburg, Md.) 96-well harvester. Bound radioactivity is determined using a TopCount 12-detector instrument (Packard Instruments) using standard scintillation counting techniques. Bound radioactivity is normalized to samples containing vehicle (basal binding). […] The Ke values were calculated using the formula Ke=[L]/DR−1, where [L] is the concentration of test compound, and DR is the ratio of agonist EC50 value in the presence or absence of test compound.

[2] = biological target: T2, human κ opioid receptor (KOP) over-expressed in CHO cells (Homo sapiens, UniProt P41145); assay: [35S]GTPγS binding assay, functional antagonism (Ke) vs U69,593; format: biochemical; settings: agonist U69,593, read-out: apparent affinity (Ke) of antagonists, KOP
T2 construct: host or cells: CHO cells; membrane homogenates
Description: as §1, §2

[3] = biological target: T3, human μ opioid receptor (MOP) over-expressed in CHO cells (Homo sapiens, UniProt P35372); assay: [35S]GTPγS binding assay, functional antagonism (Ke) vs DAMGO; format: biochemical; settings: agonist DAMGO, read-out: apparent affinity (Ke) of antagonists, MOP
T3 construct: host or cells: CHO cells; membrane homogenates
Description: as §1, §2

[4] = tested on: human κ, μ and δ opioid receptors over-expressed in CHO cells; assay: [35S]GTPγS binding assay, screen for intrinsic agonist activity; format: biochemical; settings: screened at 10 μM
Description: as §1
The test compounds were assayed in duplicate in 1.4-mL polypropylene tubes in a 96-well format. […] Bound radioactivity is determined using a TopCount 12-detector instrument (Packard Instruments) using standard scintillation counting techniques. Bound radioactivity is normalized to samples containing vehicle (basal binding). […] The Ke values were calculated using the formula Ke=[L]/DR−1, where [L] is the concentration of test compound, and DR is the ratio of agonist EC50 value in the presence or absence of test compound. […]

[5] = biological target: T2, human κ opioid receptor (KOP) over-expressed in CHO cells; settings: from Hartung et al., cited from earlier work; for Ke at the KOP: J. Nat. Prod. 2014, 77, 311

T2 sequence (P41145 whole entry): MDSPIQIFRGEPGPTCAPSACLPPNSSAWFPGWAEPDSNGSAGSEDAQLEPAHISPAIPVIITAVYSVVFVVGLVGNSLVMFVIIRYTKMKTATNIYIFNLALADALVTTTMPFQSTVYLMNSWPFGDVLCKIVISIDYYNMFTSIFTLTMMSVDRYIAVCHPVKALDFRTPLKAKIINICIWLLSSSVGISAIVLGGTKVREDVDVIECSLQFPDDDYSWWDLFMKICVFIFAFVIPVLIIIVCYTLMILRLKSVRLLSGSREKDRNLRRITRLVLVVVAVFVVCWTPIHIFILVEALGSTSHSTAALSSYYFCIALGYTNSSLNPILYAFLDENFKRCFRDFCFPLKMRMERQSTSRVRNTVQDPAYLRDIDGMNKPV
T3 sequence (P35372 whole entry): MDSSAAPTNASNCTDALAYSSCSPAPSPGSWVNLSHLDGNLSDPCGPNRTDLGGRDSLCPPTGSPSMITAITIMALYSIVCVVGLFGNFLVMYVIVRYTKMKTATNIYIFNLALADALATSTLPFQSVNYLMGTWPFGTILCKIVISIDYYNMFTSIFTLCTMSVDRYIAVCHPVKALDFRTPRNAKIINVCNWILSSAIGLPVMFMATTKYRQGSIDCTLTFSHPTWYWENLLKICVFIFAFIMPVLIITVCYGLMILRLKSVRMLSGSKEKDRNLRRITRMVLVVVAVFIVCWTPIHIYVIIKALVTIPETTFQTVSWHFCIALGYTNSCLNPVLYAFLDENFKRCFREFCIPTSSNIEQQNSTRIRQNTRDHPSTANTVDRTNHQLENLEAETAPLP
T1 sequence (P41143 whole entry): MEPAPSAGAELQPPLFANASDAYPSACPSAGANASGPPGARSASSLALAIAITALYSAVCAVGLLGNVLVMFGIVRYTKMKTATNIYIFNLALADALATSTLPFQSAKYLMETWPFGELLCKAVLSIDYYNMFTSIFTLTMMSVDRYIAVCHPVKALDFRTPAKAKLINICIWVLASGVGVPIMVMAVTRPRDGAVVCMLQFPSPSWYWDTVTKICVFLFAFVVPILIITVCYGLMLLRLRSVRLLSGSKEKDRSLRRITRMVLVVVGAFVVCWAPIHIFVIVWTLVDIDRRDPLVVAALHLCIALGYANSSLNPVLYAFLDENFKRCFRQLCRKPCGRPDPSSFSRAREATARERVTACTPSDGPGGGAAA

Structure (SMILES) | Kb [1] [nM] | KOP/DOP selectivity ([1]; ratio of Ke values) | MOP/DOP selectivity ([1]; ratio of Ke values) | Kb [2] [nM] | Kb [3] [nM] | intrinsic agonist activity [4] | Ke at the KOP [5] [µM] | δ/κ selectivity ([5]; J. Nat. Prod. 2014) | μ/κ selectivity ([5]; J. Nat. Prod. 2014)
COc1cc(/C=C/c2ccc(O)c(O)c2CC=C(C)C)c(C/C=C(\C)CCC=C(C)C)c(OC)c1 [Compound 4] | 25 | > 400 | > 400 | > 10000 | > 10000 | no agonist activity | – | – | –
COc1cc(/C=C/c2cc(O)c(O)c(CC=C(C)C)c2)c(C/C=C(\C)CCC=C(C)C)c(OC)c1 [Compound 3, 5-((E)-2-((E)-3,7-dimethylocta-2,6-dien-1-yl)-3,5-dimethoxystyryl)-3-(3-methylbut-2-en-1-yl)benzene-1,2-diol] | > 10000 | – | – | 150 | > 10000 | – | 0.15 | > 67 | > 67
CC(C)=CCC/C(C)=C/Cc1c(O)cc(O)cc1/C=C/c1ccc(O)c(O)c1CC=C(C)C [Compound 1, pawhuskin A] | 2900 | – | – | 200 | 570000 | – | 0.20 | – | –
